According to ChEMBL document CHEMBL1201861, “Genomics of Drug Sensitity in Cancer screening data, Wellcome Trust Sanger Institute”:
pIC50: −log10 of the molar value.

Tests used:
Assay in all cases: cells
Settings in all cases: Homo sapiens
SW872 = assay type: functional, cell-based;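 further: growth inhibition of SW872 cells, read out by a viability assay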
Description: SANGER: Inhibition of human SW872 cell growth in a cell viability assay.

NCI-H1092 = assay type: functional, cell-based;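 further: cell growth inhibition measured with a cell viability assay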
Description: SANGER: Inhibition of human NCI-H1092 cell growth in a cell viability assay.

BB65-RCC = assay type: functional, cell-based;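 further: growth inhibition of the cell line, measured with a cell viability assay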
Description: SANGER: Inhibition of human BB65-RCC cell growth in a cell viability assay.

NCI-H526 = assay type: functional, cell-based;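 further: growth inhibition of the human NCI-H526 cell line, measured by a cell viability assay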
Description: SANGER: Inhibition of human NCI-H526 cell growth in a cell viability assay.

Ramos-2G6-4C10 = assay type: functional, cell-based;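 further: growth inhibition of the cell line, measured by a cell viability read-out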
Description: SANGER: Inhibition of human Ramos-2G6-4C10 cell growth in a cell viability assay.

KS-1 = assay type: functional, cell-based;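 further: growth inhibition of KS-1 cells, read out with a cell viability assay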
Description: SANGER: Inhibition of human KS-1 cell growth in a cell viability assay.

SCC-15 = assay type: functional, cell-based;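 further: growth inhibition of SCC-15 cells, read out with a cell viability assay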
Description: SANGER: Inhibition of human SCC-15 cell growth in a cell viability assay.

NCI-H209 = assay type: functional, cell-based;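 further: growth inhibition of human NCI-H209 cells, measured by a cell viability assay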
Description: SANGER: Inhibition of human NCI-H209 cell growth in a cell viability assay.

NCI-H2126 = assay type: functional, cell-based;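 further: growth inhibition of the cancer cell line, determined with a cell viability readout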
Description: SANGER: Inhibition of human NCI-H2126 cell growth in a cell viability assay.

MOLT-16 = assay type: functional, cell-based;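 further: growth inhibition of human MOLT-16 cells, read out with a cell viability assay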
Description: SANGER: Inhibition of human MOLT-16 cell growth in a cell viability assay.

SW982 = assay type: functional, cell-based;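 further: growth inhibition of SW982 cells, read out with a cell viability assay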
Description: SANGER: Inhibition of human SW982 cell growth in a cell viability assay.

MZ2-MEL = assay type: functional, cell-based;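 further: growth inhibition of MZ2-MEL cells read out with a cell viability assay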
Description: SANGER: Inhibition of human MZ2-MEL cell growth in a cell viability assay.

SW684 = assay type: functional, cell-based;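 further: growth inhibition of human SW684 cells, measured by a cell viability assay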
Description: SANGER: Inhibition of human SW684 cell growth in a cell viability assay.

EW-18 = assay type: functional, cell-based;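 further: growth inhibition of EW-18 cells, read out by a cell viability assay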
Description: SANGER: Inhibition of human EW-18 cell growth in a cell viability assay.

NCI-H1838 = assay type: functional, cell-based;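 further: growth inhibition of NCI-H1838 cells, determined with a cell viability readout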
Description: SANGER: Inhibition of human NCI-H1838 cell growth in a cell viability assay.

SK-NEP-1 = assay type: functional, cell-based;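 further: growth inhibition of human SK-NEP-1 cells, read out by a cell viability assay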
Description: SANGER: Inhibition of human SK-NEP-1 cell growth in a cell viability assay.

HT = assay type: functional, cell-based
Description: SANGER: Inhibition of human HT cell growth in a cell viability assay.

EKVX = assay type: functional, cell-based;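 further: growth inhibition of human EKVX cells, read out with a cell viability assay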
Description: SANGER: Inhibition of human EKVX cell growth in a cell viability assay.

MMAC-SF = assay type: functional, cell-based;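 further: growth inhibition of human MMAC-SF cells, read out with a cell viability assay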
Description: SANGER: Inhibition of human MMAC-SF cell growth in a cell viability assay.

GCIY = assay type: functional, cell-based;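 further: growth inhibition of the human GCIY cell line, read out by a cell viability assay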
Description: SANGER: Inhibition of human GCIY cell growth in a cell viability assay.

LB771-HNC = assay type: functional, cell-based;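 further: growth inhibition of LB771-HNC human cells, read out with a cell viability assay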
Description: SANGER: Inhibition of human LB771-HNC cell growth in a cell viability assay.

NB6 = assay type: functional, cell-based
Description: SANGER: Inhibition of human NB6 cell growth in a cell viability assay.

LB831-BLC = assay type: functional, cell-based;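 further: growth inhibition of LB831-BLC cells, read out with a cell viability assay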
Description: SANGER: Inhibition of human LB831-BLC cell growth in a cell viability assay.

HCE-4 = assay type: functional, cell-based;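 further: cell viability assay measuring inhibition of growth in the human HCE-4 cell line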
Description: SANGER: Inhibition of human HCE-4 cell growth in a cell viability assay.

KLE = assay type: functional, cell-based;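 further: growth inhibition of human KLE cells, read out with a cell viability assay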
Description: SANGER: Inhibition of human KLE cell growth in a cell viability assay.

GOTO = assay type: functional, cell-based;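 further: growth inhibition of GOTO cells, read out by a cell viability assay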
Description: SANGER: Inhibition of human GOTO cell growth in a cell viability assay.

KG-1 = assay type: functional, cell-based;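 further: growth inhibition of KG-1 cells, read out by a cell viability assay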
Description: SANGER: Inhibition of human KG-1 cell growth in a cell viability assay.

NCI-H1155 = assay type: functional, cell-based;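 further: cell growth inhibition measured by a viability assay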
Description: SANGER: Inhibition of human NCI-H1155 cell growth in a cell viability assay.

SCH = assay type: functional, cell-based;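 further: growth inhibition of human SCH cells, read out in a cell viability assay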
Description: SANGER: Inhibition of human SCH cell growth in a cell viability assay.

IST-MEL1 = assay type: functional, cell-based;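 further: growth inhibition of the cell line, read out with a cell viability assay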
Description: SANGER: Inhibition of human IST-MEL1 cell growth in a cell viability assay.

ACN = assay type: functional, cell-based;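 further: growth inhibition of the human ACN cell line, read out via cell viability testing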
Description: SANGER: Inhibition of human ACN cell growth in a cell viability assay.

KU812 cell line = assay type: functional, cell-based;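 further: growth inhibition of KU812 cells, read out with a cell viability assay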
Description: SANGER: Inhibition of human KU812 cell growth in a cell viability assay.

697 = assay type: functional, cell-based
Description: SANGER: Inhibition of human 697 cell growth in a cell viability assay.

SH-4 = assay type: functional, cell-based;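 further: growth inhibition of SH-4 cells, read out with a cell viability assay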
Description: SANGER: Inhibition of human SH-4 cell growth in a cell viability assay.

COLO-829 = assay type: functional, cell-based
Description: SANGER: Inhibition of human COLO-829 cell growth in a cell viability assay.

NCI-H23 = assay type: functional, cell-based;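 further: cell viability assay measuring growth inhibition of NCI-H23 cells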
Description: SANGER: Inhibition of human NCI-H23 cell growth in a cell viability assay.

RCC10RGB = assay type: functional, cell-based;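 further: growth inhibition of human RCC10RGB cells, read out by a cell viability assay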
Description: SANGER: Inhibition of human RCC10RGB cell growth in a cell viability assay.

U-87 MG = assay type: functional, cell-based, U-87MG ATCC;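 further: growth inhibition of the cells measured with a viability assay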
Description: SANGER: Inhibition of human U-87-MG cell growth in a cell viability assay.

HAL-01 = assay type: functional, cell-based;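 further: growth inhibition of human HAL-01 cells, read out with a cell viability assay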
Description: SANGER: Inhibition of human HAL-01 cell growth in a cell viability assay.

RPMI-8226 = assay type: functional, cell-based
Description: SANGER: Inhibition of human RPMI-8226 cell growth in a cell viability assay.

ES7 = assay type: functional, cell-based;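 further: growth inhibition of cultured human ES7 cells, read out as cell viability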
Description: SANGER: Inhibition of human ES7 cell growth in a cell viability assay.

PSN1 = assay type: functional, cell-based;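 further: suppression of growth of human PSN1 cells, read out by a cell viability assay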
Description: SANGER: Inhibition of human PSN1 cell growth in a cell viability assay.

NB69 = assay type: functional, cell-based;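 further: growth inhibition of NB69 cells, determined by a cell viability assay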
Description: SANGER: Inhibition of human NB69 cell growth in a cell viability assay.

D-263MG = assay type: functional, cell-based
Description: SANGER: Inhibition of human D-263MG cell growth in a cell viability assay.

P30-OHK = assay type: functional, cell-based;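 further: growth inhibition of the P30-OHK cell line, read out with a cell viability assay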
Description: SANGER: Inhibition of human P30-OHK cell growth in a cell viability assay.

MHH-NB-11 = assay type: functional, cell-based;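 further: growth inhibition of human MHH-NB-11 cells, read out by a cell viability assay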
Description: SANGER: Inhibition of human MHH-NB-11 cell growth in a cell viability assay.

BV-173 = assay type: functional, cell-based
Description: SANGER: Inhibition of human BV-173 cell growth in a cell viability assay.

TE-1 = assay type: functional, cell-based;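 further: growth inhibition of the human TE-1 cell line, read out with a cell viability assay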
Description: SANGER: Inhibition of human TE-1 cell growth in a cell viability assay.

8-MG-BA = assay type: functional, cell-based;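 further: growth inhibition of 8-MG-BA cells, read out with a cell viability assay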
Description: SANGER: Inhibition of human 8-MG-BA cell growth in a cell viability assay.

NOS-1 = assay type: functional, cell-based;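 further: growth inhibition of the human NOS-1 cell line, read out with a cell viability assay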
Description: SANGER: Inhibition of human NOS-1 cell growth in a cell viability assay.

NKM-1 = assay type: functional, cell-based;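 further: growth inhibition of NKM-1 cells, read out with a cell viability assay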
Description: SANGER: Inhibition of human NKM-1 cell growth in a cell viability assay.

DJM-1 = assay type: functional, cell-based;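 further: growth inhibition of human DJM-1 cells, read out by a cell viability assay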
Description: SANGER: Inhibition of human DJM-1 cell growth in a cell viability assay.

COLO-684 = assay type: functional, cell-based
Description: SANGER: Inhibition of human COLO-684 cell growth in a cell viability assay.

IST-SL1 = assay type: functional, cell-based;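 further: growth inhibition of human IST-SL1 cells, read out with a cell viability assay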
Description: SANGER: Inhibition of human IST-SL1 cell growth in a cell viability assay.

JVM-3 = assay type: functional, cell-based;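 further: growth inhibition of human JVM-3 cells, read out with a cell viability assay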
Description: SANGER: Inhibition of human JVM-3 cell growth in a cell viability assay.

TE-5 = assay type: functional, cell-based;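 further: inhibition of cell growth, read out by a cell viability assay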
Description: SANGER: Inhibition of human TE-5 cell growth in a cell viability assay.

KM-H2 = assay type: functional, cell-based
Description: SANGER: Inhibition of human KM-H2 cell growth in a cell viability assay.

NH-12 = assay type: functional, cell-based
Description: SANGER: Inhibition of human NH-12 cell growth in a cell viability assay.

LXF-289 cell line = assay type: functional, cell-based
Description: SANGER: Inhibition of human LXF-289 cell growth in a cell viability assay.

NCI-H510A = assay type: functional, cell-based
Description: SANGER: Inhibition of human NCI-H510A cell growth in a cell viability assay.

SK-MEL-2 = assay type: functional, cell-based
Description: SANGER: Inhibition of human SK-MEL-2 cell growth in a cell viability assay.

LS-411N = assay type: functional, cell-based
MS-1 = assay type: functional, cell-based
Description: SANGER: Inhibition of human MS-1 cell growth in a cell viability assay.

KP-N-YS = assay type: functional, cell-based
Description: SANGER: Inhibition of human KP-N-YS cell growth in a cell viability assay.

BE-13 = assay type: functional, cell-based
Description: SANGER: Inhibition of human BE-13 cell growth in a cell viability assay.

K562 = assay type: functional, cell-based
Description: SANGER: Inhibition of human K-562 cell growth in a cell viability assay.

In the case of `Cn1cc(/C=C2\C(=O)Nc3cccnc32)c2ccccc21`, the pIC50 (SW872) was less than 5.70, the pIC50 (NCI-H1092) was less than 5.70 and the pIC50 (BB65-RCC) was less than 5.70. The pIC50 (NCI-H526) was less than 5.70, the pIC50 (Ramos-2G6-4C10) was less than 5.70 and the pIC50 (KS-1) was less than 5.70. It also gave a pIC50 (SCC-15) of less than 5.70, a pIC50 (NCI-H209) of less than 5.70 and a pIC50 (NCI-H2126) of less than 5.70. For the same compound, the pIC50 (MOLT-16) was less than 5.70, the pIC50 (SW982) was less than 5.70 and the pIC50 (MZ2-MEL) was less than 5.70. The pIC50 (SW684) was less than 5.70, the pIC50 (EW-18) was less than 5.70 and the pIC50 (NCI-H1838) was less than 5.70. For the same compound, the pIC50 (SK-NEP-1) was less than 5.70, the pIC50 (HT) was less than 5.70 and the pIC50 (EKVX) was less than 5.70. The pIC50 (MMAC-SF) was less than 5.70, the pIC50 (GCIY) was less than 5.70 and the pIC50 (LB771-HNC) was less than 5.70. The pIC50 (NB6) was less than 5.70, the pIC50 (LB831-BLC) was less than 5.70 and the pIC50 (HCE-4) was less than 5.70. The pIC50 (KLE) was less than 5.70, the pIC50 (GOTO) was less than 5.70 and the pIC50 (KG-1) was less than 5.70. It also gave a pIC50 (NCI-H1155) of less than 5.70, a pIC50 (SCH) of less than 5.70 and a pIC50 (IST-MEL1) of less than 5.70. It also gave a pIC50 (ACN) of 6.06, a pIC50 (KU812 cell line) of less than 5.70 and a pIC50 697 of less than 5.70. It also gave a pIC50 (SH-4) of less than 5.70, a pIC50 (COLO-829) of less than 5.70 and a pIC50 (NCI-H23) of less than 5.70. It also gave a pIC50 (RCC10RGB) of less than 5.70, a pIC50 (U-87 MG) of less than 5.70 and a pIC50 (HAL-01) of less than 5.70. It also gave a pIC50 (RPMI-8226) of less than 5.70, a pIC50 (ES7) of less than 5.70 and a pIC50 (PSN1) of less than 5.70. The pIC50 (NB69) was less than 5.70, the pIC50 (D-263MG) was less than 5.70 and the pIC50 (P30-OHK) was less than 5.70. For the same compound, the pIC50 (MHH-NB-11) was less than 5.70, the pIC50 (BV-173) was less than 5.70 and the pIC50 (TE-1) was less than 5.70. For the same compound, the pIC50 (8-MG-BA) was less than 5.70, the pIC50 (NOS-1) was less than 5.70 and the pIC50 (NKM-1) was less than 5.70. It also gave a pIC50 (DJM-1) of less than 5.70, a pIC50 (COLO-684) of less than 5.70 and a pIC50 (IST-SL1) of less than 5.70. It also gave a pIC50 (JVM-3) of less than 5.70, a pIC50 (TE-5) of less than 5.70 and a pIC50 (KM-H2) of less than 5.70. The pIC50 (NH-12) was less than 5.70, the pIC50 (LXF-289 cell line) was less than 5.70 and the pIC50 (NCI-H510A) was less than 5.70. The pIC50 (SK-MEL-2) was less than 5.70, the pIC50 (LS-411N) was less than 5.70 and the pIC50 (MS-1) was less than 5.70. It also gave a pIC50 (KP-N-YS) of less than 5.70, a pIC50 (BE-13) of less than 5.70 and a pIC50 (K562) of less than 5.70.
`Fc1cc(-c2cc[nH]/c(=N/c3ccc(-n4cnc(N5CCOCC5)n4)cc3)n2)cc(N2CCOCC2)c1` was tested, and the pIC50 (SW872) was 6.27, the pIC50 (NCI-H1092) was 5.75 and the pIC50 (BB65-RCC) was 6.03. It also gave a pIC50 (NCI-H526) of 6.02, a pIC50 (Ramos-2G6-4C10) of 6.41 and a pIC50 (KS-1) of 6.80. For the same compound, the pIC50 (SCC-15) was 6.10, the pIC50 (NCI-H209) was 5.90 and the pIC50 (NCI-H2126) was 6.27. It also gave a pIC50 (MOLT-16) of 6.13, a pIC50 (SW982) of 6.92 and a pIC50 (MZ2-MEL) of 6.39. For the same compound, the pIC50 (SW684) was 5.52, the pIC50 (EW-18) was 6.07 and the pIC50 (NCI-H1838) was less than 5.29. For the same compound, the pIC50 (SK-NEP-1) was 6.26, the pIC50 (HT) was 6.20 and the pIC50 (EKVX) was 5.55. It also gave a pIC50 (MMAC-SF) of 5.61, a pIC50 (GCIY) of 6.89 and a pIC50 (LB771-HNC) of 7.11. For the same compound, the pIC50 (NB6) was 6.04, the pIC50 (LB831-BLC) was 6.38 and the pIC50 (HCE-4) was 6.04. The pIC50 (KLE) was 5.74, the pIC50 (GOTO) was 6.09 and the pIC50 (KG-1) was 6.32. The pIC50 (NCI-H1155) was 5.58, the pIC50 (SCH) was 5.49 and the pIC50 (IST-MEL1) was 6.05. It also gave a pIC50 (ACN) of 7.10, a pIC50 (KU812 cell line) of 6.47 and a pIC50 697 of 6.43. The pIC50 (SH-4) was 6.39, the pIC50 (COLO-829) was 6.28 and the pIC50 (NCI-H23) was less than 5.29. For the same compound, the pIC50 (RCC10RGB) was 6.05, the pIC50 (U-87 MG) was 5.56 and the pIC50 (HAL-01) was 6.15. The pIC50 (RPMI-8226) was 5.99, the pIC50 (ES7) was 6.49 and the pIC50 (PSN1) was less than 5.29. The pIC50 (NB69) was 5.84, the pIC50 (D-263MG) was 6.14 and the pIC50 (P30-OHK) was 6.52. The pIC50 (MHH-NB-11) was 6.03, the pIC50 (BV-173) was 6.13 and the pIC50 (TE-1) was less than 5.29. The pIC50 (8-MG-BA) was 6.93, the pIC50 (NOS-1) was 6.51 and the pIC50 (NKM-1) was 6.37. It also gave a pIC50 (DJM-1) of less than 5.29, a pIC50 (COLO-684) of 6.26 and a pIC50 (IST-SL1) of 6.11. For the same compound, the pIC50 (JVM-3) was less than 5.29, the pIC50 (TE-5) was 6.47 and the pIC50 (KM-H2) was 5.87. The pIC50 (NH-12) was 6.33, the pIC50 (LXF-289 cell line) was 6.10 and the pIC50 (NCI-H510A) was less than 5.29. It also gave a pIC50 (SK-MEL-2) of 6.20, a pIC50 (LS-411N) of 6.70 and a pIC50 (MS-1) of 5.58. The pIC50 (KP-N-YS) was 6.16, the pIC50 (BE-13) was 5.96 and the pIC50 (K562) was less than 5.29.
